In patent publication US8664223B2, “Pyridine and pyrimidine derivatives as inhibitors of histone deacetylase” (Janssen Pharmaceutica N.V, priority 2006, dated 2014):
In brackets after ≈: the same amount, converted by molar mass. Structures can show the parent of a compound that is named as a salt. Where two headings read alike, the source gives them in different places.

Legend:
[1] = Solubility/stability at pH 2.3 (chemiluminescent nitrogen detector); assay type: physicochemical; conditions: pH 2.3, aqueous buffer; read-out: Solubility C.3.b. pH = 2.3
Method: The solubility of a compound measures the ability of a compound to stay in solution. In the first method, the ability of a compound to stay in aqueous solution upon dilution (see example C.3.a) is measured. DMSO-stock solutions are diluted with a single aqueous buffer solvent in different consecutive steps. In this method (C.3.a), mixtures are then scanned in the BD Gentest Solubility Scanner for the occurrence of precipitation. In the second method the solubility of a compound at different pH's can be measured with the use of a chemiluminescent nitrogen detector (see example C.3.b).
C.3.b. Solubility/Stability at pH 2.3
The solubility of a compound, at pH 2.3, can also be measured with the use of a chemiluminescent nitrogen detector (see Table F-2).

[2] = target: histone deacetylase (HeLa nuclear extracts); assay: In vitro assay for inhibition of histone deacetylase with fluorescent-labelled substrate (Fluor de Lys); assay type: biochemical; conditions: HeLa nuclear extracts 60 μg/ml, 75 μM substrate
From the text: The in vitro assay for inhibition of histone deacetylase (see example C.1) measures the inhibition of HDAC enzymatic activity obtained with the compounds of formula (I).
The HDAC Fluorescent Activity Assay/Drug Discovery Kit of Biomol (cat. No: AK-500-0001) was used. The HDAC Fluorescent Activity Assay is based on the Fluor de Lys (Fluorogenic Histone deAcetylase Lysyl) substrate and developer combination. The Fluor de Lys substrate, comprises an acetylated lysine side chain. Deacetylation of the substrate sensitizes the substrate so that, in the second step, treatment with the Fluor de Lys developer produces a fluorophore.
HeLa nuclear extracts (supplier: Biomol) were incubated at 60 μg/ml with 75 μM of substrate. The Fluor de Lys substrate was added in a buffer containing 25 mM Tris, 137 mM NaCl, 2.7 mM KCl and 1 mM MgCl2.6H2O at pH 7.4. After 30 min, 1 volume of the developer was added. The fluorophore was excited with 355 nm light and the emitted light (450 nm) was be detected on a fluorometric plate reader.
For each experiment, controls (containing HeLa nuclear extract and buffer), a blank incubation (containing buffer but no HeLa nuclear extract) and samples (containing compound dissolved in DMSO and further diluted in buffer and HeLa nuclear extract) were run in parallel. In first instance, compounds were tested at a concentration of 10^−5M. […] All sample were tested 4 times. In each test the blank value was subtracted from both the control and the sample values. The control sample represented 100% of substrate deacetylation. For each sample the fluorescence was expressed as a percentage of the mean value of the controls. […] Herein the effects of test compounds are expressed as pIC50 (the negative log value of the IC50-value) (see Table F-2).

[3] = tested on: A2780 ovarian carcinoma cells; assay: Antiproliferative activity on A2780 cells (MTT); assay type: cell-based; conditions: Homo sapiens, 96 h, four days of incubation, read-out: Cellular activity pIC50 C.2 (converted)
Method: Cellular activity of the compounds of formula (I) was determined on A2780 tumour cells using a colorimetric assay for cell toxicity or survival (Mosmann Tim, Journal of Immunological Methods 65: 55-63, 1983) (see example C.2).
All compounds tested were dissolved in DMSO and further dilutions were made in culture medium. Final DMSO concentrations never exceeded 0.1% (v/v) in cell proliferation assays. Controls contained A2780 cells and DMSO without compound and blanks contained DMSO but no cells. MTT was dissolved at 5 mg/ml in PBS. A glycine buffer comprised of 0.1 M glycine and 0.1 M NaCl buffered to pH 10.5 with NaOH (1N) was prepared (all reagents were from Merck).
The human A2780 ovarian carcinoma cells (a kind gift from Dr. T. C. Hamilton [Fox Chase Cancer Centre, Pennsylvania, USA]) were cultured in RPMI 1640 medium supplemented with 2 mM L-glutamine, 50 μg/ml gentamicin and 10% fetal calf serum. Cells were routinely kept as monolayer cultures at 37° C. in a humidified 5% CO2 atmosphere. Cells were passaged once a week using a trypsin/EDTA solution at a split ratio of 1:40. All media and supplements were obtained from Life Technologies. Cells were free of mycoplasma contamination as determined using the Gen-Probe Mycoplasma Tissue Culture kit (supplier: BioMérieux).
Cells were seeded in NUNC™ 96-well culture plates (Supplier: Life Technologies) and allowed to adhere to the plastic overnight. Densities used for plating were 1500 cells per well in a total volume of 200 μl medium. After cell adhesion to the plates, medium was changed and drugs and/or solvents were added to a final volume of 200 μl. Following four days of incubation, medium was replaced by 200 μl fresh medium and cell density and viability was assessed using an MTT-based assay. To each well, 25 μl MTT solution was added and the cells were further incubated for 2 hours at 37° C. The medium was then carefully aspirated and the blue MTT-formazan product was solubilized by addition of 25 μl glycine buffer followed by 100 μl of DMSO. […] Within an experiment, the results for each experimental condition are the mean of 3 replicate wells. For initial screening purposes, compounds were tested at a single fixed concentration of 10^−6 M. For active compounds, the experiments were repeated to establish full concentration-response curves. For each experiment, controls (containing no drug) and a blank incubation (containing no cells or drugs) were run in parallel. The blank value was subtracted from all control and sample values. For each sample, the mean value for cell growth (in absorbance units) was expressed as a percentage of the mean value for cell growth of the control. […] Herein the effects of test compounds are expressed as pIC50 (the negative log value of the IC50-value) (see Table F-2).

[4] = not given; remark: listed apart in the source

SMILES | Enzymatic activity pIC50 C.1 [2] | IC50 [3] [nM] | melting point [4] [°C] | also measured
NC(/C=C/c1ccccc1)CN1CCN(c2ncc(C(=O)NO)cn2)CC1 (stereo not drawn) [Compound 2] | 8.2 | 79.4 |  | solubility [1]: 3100 µg/mL (≈ 8.41 mM)
CCCO [propanol] |  |  |  | % metabolism (after 15 min incubation with active microsomes, compound 5 μM): 25%
CS(=O)(=O)NC(/C=C/c1ccc(F)cc1)CN1CCN(c2ccc(C(=O)NO)cn2)CC1 (stereo not drawn) [Compound 6] | 7.0 | 5010 |  | 
NC(/C=C/c1ccccc1)CN1CCN(c2ncc(C(=O)NO)cn2)CC1 (stereo not drawn) (as salt: trifluoroacetic acid salt) [Compound 2] |  |  | 124 | 
O=C(NO)c1cnc(N2CCN(CC(/C=C/c3ccccc3)Oc3ccc(F)cc3)CC2)nc1 (stereo not drawn) (as salt: trifluoroacetic acid salt) (hydrate or solvate) [Compound 4] |  |  | 115 | 
O=C(NO)c1cnc(N2CCN(CC(/C=C/c3ccccc3)N3C(=O)CCC3=O)CC2)nc1 (stereo not drawn) (as salt: trifluoroacetic acid salt) (hydrate or solvate) [Compound 3] |  |  | 148 | 
CC(=O)NC(/C=C/c1ccccc1)CN1CCN(c2ncc(C(=O)NO)cn2)CC1 (stereo not drawn) (as salt: trifluoroacetic acid salt) (hydrate or solvate) [Compound 1] |  |  | 166 | 
CC(=O)NC(/C=C/c1ccccc1)CN1CCN(c2ncc(C(=O)NO)cn2)CC1 (stereo not drawn) [Compound 1] | 8.2 | 398 |  | solubility [1]: 2400 µg/mL (≈ 5.85 mM)
COc1cc(N)c(Cl)cc1C(=O)NC1CCN(CCCOc2ccc(F)cc2)CC1OC (stereo not drawn) [Cisapride] |  |  |  | % metabolism (human, 15 min, 5 μM): 45%
O=C(NO)c1cnc(N2CCN(CC(/C=C/c3ccccc3)N3C(=O)CCC3=O)CC2)nc1 (stereo not drawn) [Compound 3] | 7.5 | 7940 |  | 
O=C(NO)c1cnc(N2CCN(CC(/C=C/c3ccccc3)Oc3ccc(F)cc3)CC2)nc1 (stereo not drawn) [Compound 4] | 7.3 | 1580 |  | 
